Like-named read-outs stand apart in the source and are kept apart here.
What was measured:
[1] = tested on: electroconvulsive shock (ECS) induced convulsions; assay: blocking electroconvulsive shock (ECS) induced convulsions (Swinyard et al. procedures); type: in vivo
[2] = tested on: amnestic effects of MK-801; assay: passive avoidance response (PAR) test, amnestic effects of MK-801; type: in vivo; settings: mice
Description: FIG. 3 is a plot showing the mean latency time in the PAR test of felbamate and Compound I in blocking the amnestic effects of MK-801.
FIG. 4 is a plot showing the mean latency time in the PAR test of Compound I and the corresponding monoacid-monocarbamate.
(§1) The NMDA receptor is strongly implicated in the production of long-term potentiation and subsequent memory processes (Morris, et al., Nature Vol. 319, pp 774-776 (1986)). Blockade of these sites produces amnestic effects in mice on the passive avoidance response.

[3] = tested on: scopolamine induced cognitive deficit; assay: passive avoidance response (PAR) test, scopolamine induced cognitive deficit; type: in vivo; settings: mice, sc or po (FIGS. 1 and 2)
Protocol: FIGS. 1 and 2 are plots showing the mean latency time in the passive avoidance response (PAR) test of Compound I and arecoline in reversing scopolamine induced cognitive deficits where Compound I is administered subcutaneously (sc) or orally (po).
(§2) See, for example Dilts and Berry, J. Pharmacology and Experimental Therapeutics 58, 279-285 (1967).

[4] = tested on: cognitive deficits (scopolamine, MK-801); assay: cognitive enhancement (Examples I and II overall); type: in vivo, mice; settings: data of Examples I and II
Description: as §2, §1

[5] = literature statement; cited from earlier work
[6] = tested on: amnestic effects of MK-801; settings: Chiamulera et al. 1990; cited from earlier work
[7] = tested on: scopolamine induced cognitive deficit; settings: passive avoidance response test, mice; cited from earlier work
[8] = SC, blocking ECS induced convulsions, read-out: ED50

`NC(=O)N1c2ccccc2C=Cc2ccccc21` [Carbamazepine] showed an ED50 [1, 8] of 12 mg/kg.
With `NC(=O)OCC(CO)c1ccccc1` (stereo not drawn) [Compound I, 2-phenyl-1,3-propanediol monocarbamate] the “blocking the amnestic effects of MK-801” value [2] was “effectively blocks the amnestic effects of MK-801 in this model at low doses”, the “effectiveness in blocking the effects of MK-801 vs the corresponding monoacid-monocarbamate” value [2] was “more effective than the corresponding monoacid-monocarbamate” and the “antagonism of the amnestic effects of scopolamine” value [3] was “antagonist for the amnestic effects of scopolamine over a very wide dosage range”. The “effectiveness in blocking ECS induced convulsions vs felbamate and other known anti-convulsants” value ([1]; in words) was “significantly less effective than felbamate and other known anti-convulsants”, the ED50 ([1]; sc) was 173 mg/kg and the “effectiveness vs the corresponding dicarbamate and monoacid-monocarbamate compounds” value [4] was “significantly more effective than the corresponding dicarbamate and monoacid-monocarbamate compounds”.
In the case of `O=C1NC(=O)C(c2ccccc2)(c2ccccc2)N1` [Dilantin], the ED50 [1, 8] was 5.5 mg/kg.
For `NC(=O)OCC(COC(N)=O)c1ccccc1` [Felbamate, 2-phenyl-1,3-propanediol dicarbamate], the “blocking the amnestic effects of MK-801” value [2] is listed as “does not block the effect of MK-801”, the ED50 [1, 8] is listed as 42.2 mg/kg and the anticonvulsant effect [5] is listed as “effective anticonvulsant agent”.
For `C[C@]12N[C@H](Cc3ccccc31)c1ccccc12` [MK-801], the cognitive deficits produced [6] is listed as “produces cognitive deficits”.
In the case of `CCC1(c2ccccc2)C(=O)NC(=O)NC1=O` [Phenobarbital], the ED50 ([1]; sc) was 12 mg/kg.
For `CN1[C@@H]2C[C@@H](OC(=O)[C@H](CO)c3ccccc3)C[C@H]1[C@@H]1O[C@@H]12` [Scopolamine], the amnestic effect [7] is given as “well-known amnestic for mice in a passive avoidance response test”.
`CCCC(CCC)C(=O)O` [Valproate] gave an ED50 ([1]; sc) of 550 mg/kg.

From US5492930A, “Method and formulation for treating CNS disorders” (Schering Corporation, priority 1994, dated 1996)
